Experimental data published in the supplement of paper PMC11061612.

Key:
[1] = tested on: OCI-AML3 (Acute Myeloid Leukemia); assay: Bliss excess, mean over the matrix (fraction); higher = more synergy
How it was run: (§1)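 Cell lines grown in DMEM/F12 or RPMI with 10% FBS were plated in 1536-well plates and held 24 hours at 37°C, 5% CO2 before 72 hours of exposure to two-drug dose matrices, with DMSO typically at 0.2%. CellTiter-Glo 2.0 luminescence gave viability, which was converted to inhibition. Vehicle wells were set to 0 and blank wells to 1. Combination Emax is the second-highest inhibition in the matrix, and Bliss excess is the observed combination effect minus the expected EA + EB − EA·EB, where EA and EB are the single-agent effects.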

[2] = tested on: H9 (T-Cell Non-Hodgkin's Lymphoma); assay: combination Emax (second highest fraction inhibited in the dose matrix, 72 h); higher = more inhibition; extreme values may be limits of the assay
How it was run: as §1

[3] = tested on: OCI-AML3 (Acute Myeloid Leukemia); assay: as above
How it was run: as §1

[4] = tested on: KYSE-270 (Esophageal Squamous Cell Carcinoma); assay: as above
How it was run: as §1
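Throughout, for Bliss excess, mean over the matrix: after 72 h of two-drug dosing.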

## Cn1cnc2c(F)c(Nc3ccc(Br)cc3Cl)c(C(=O)NOCCO)cc21 [Selumetinib] + C[C@@H]1COCCN1C2=NC(=NC(=C2)C3(CC3)[S@](=N)(=O)C)C4=C5C=CNC5=NC=C4 [AZD6738] (first compound max 10 µM, 7x7, partner max 10 µM)
[1]
  Bliss excess: -0.0941
[2]
  combination Emax: 1
[3]
  combination Emax: 0.943
[4]
  combination Emax: 0.524

## NC1(C(=O)N[C@@H](CCO)c2ccc(Cl)cc2)CCN(c2ncnc3[nH]ccc23)CC1 [Capivasertib] + C[C@@H]1COCCN1C2=NC(=NC(=C2)C3(CC3)[S@](=N)(=O)C)C4=C5C=CNC5=NC=C4 [AZD6738] (first compound max 10 µM, 7x7, partner max 10 µM)
[1]
  Bliss excess: -0.0224
[2]
  combination Emax: 1
[3]
  combination Emax: 0.891
[4]
  combination Emax: 0.651

## C[C@@H](c1ccc2nccn2c1)n1nnc2ncc(-c3cnn(C)c3)nc21 [Savolitinib] + Cc1c2c(nn1C)CSCc1cc(n(C)n1)CSc1cc(c3ccccc3c1)OCCCc1c(C(=O)O)n(C)c3c-2c(Cl)ccc13 [AZD5991] (first compound max 1 µM, 7x7, partner max 1 µM)
[1]
  Bliss excess: -0.0103
[2]
  combination Emax: 0.342
[3]
  combination Emax: 0.967
[4]
  combination Emax: 0.652

## Cn1cnc2c(F)c(Nc3ccc(Br)cc3Cl)c(C(=O)NOCCO)cc21 [Selumetinib] + CC(C)n1c(=O)n(C)c2cnc3cc(F)c(-c4ccc(OCCCN5CCCCC5)nc4)cc3c21 [AZD1390] (first compound max 10 µM, 7x7, partner max 0.3 µM)
[1]
  Bliss excess: -0.0696
[2]
  combination Emax: 0.978
[3]
  combination Emax: 0.909
[4]
  combination Emax: 0.25

## NC1(C(=O)N[C@@H](CCO)c2ccc(Cl)cc2)CCN(c2ncnc3[nH]ccc23)CC1 [Capivasertib] + CC(=O)c1c(C)c2cnc(Nc3ccc(N4CCNCC4)cn3)nc2n(C2CCCC2)c1=O [Palbociclib] (first compound max 10 µM, 7x7, partner max 10 µM)
[1]
  Bliss excess: 0.0866
[2]
  combination Emax: 0.985
[3]
  combination Emax: 0.587
[4]
  combination Emax: 0.27

## CS(=O)(=O)CCNCc1ccc(-c2ccc3ncnc(Nc4ccc(OCc5cccc(F)c5)c(Cl)c4)c3c2)o1 [Lapatinib] + Cn1cnc2c(F)c(Nc3ccc(Br)cc3Cl)c(C(=O)NOCCO)cc21 [Selumetinib] (first compound max 10 µM, 7x7, partner max 10 µM)
[1]
  Bliss excess: -0.0562
[3]
  combination Emax: 0.879
[4]
  combination Emax: 0.542

## COc1cc2ncnc(Nc3ccc(F)c(Cl)c3)c2cc1OCCCN1CCOCC1 [Gefitinib] + CC(C)n1c(=O)n(C)c2cnc3cc(F)c(-c4ccc(OCCCN5CCCCC5)nc4)cc3c21 [AZD1390] (first compound max 10 µM, 7x7, partner max 0.3 µM)
[1]
  Bliss excess: -0.0457
[2]
  combination Emax: 0.47
[3]
  combination Emax: 0.059
[4]
  combination Emax: 0.435

## CC(=O)c1c(C)c2cnc(Nc3ccc(N4CCNCC4)cn3)nc2n(C2CCCC2)c1=O [Palbociclib] + Cn1cnc2c(F)c(Nc3ccc(Br)cc3Cl)c(C(=O)NOCCO)cc21 [Selumetinib] (first compound max 10 µM, 7x7, partner max 10 µM)
[1]
  Bliss excess: 0.0289
[2]
  combination Emax: 0.956
[3]
  combination Emax: 0.935
[4]
  combination Emax: 0.252

## COc1nnc2ccc(N3CCC(c4ccc(OCCN5CCN(C)C(=O)[C@H]5C)cc4)CC3)nn12 [AZD5153] + C=CCn1c(=O)c2cnc(Nc3ccc(N4CCN(C)CC4)cc3)nc2n1-c1cccc(C(C)(C)O)n1 [AZD1775] (first compound max 1 µM, partner max 1 µM)
[1]
  Bliss excess: -0.012
[2]
  combination Emax: 1
[3]
  combination Emax: 1
[4]
  combination Emax: 0.656

## COc1nnc2ccc(N3CCC(c4ccc(OCCN5CCN(C)C(=O)[C@H]5C)cc4)CC3)nn12 [AZD5153] + CCN(CCO)CCCOc1ccc2c(Nc3cc(CC(=O)Nc4cccc(F)c4)[nH]n3)ncnc2c1 [AZD2811] (first compound max 1 µM, 7x7, partner max 1 µM)
[1]
  Bliss excess: 0.05
[2]
  combination Emax: 1
[3]
  combination Emax: 1
[4]
  combination Emax: 0.439

## CC(=O)c1c(C)c2cnc(Nc3ccc(N4CCNCC4)cn3)nc2n(C2CCCC2)c1=O [Palbociclib] + CC1(C)CCC(CN2CCN(c3ccc(C(=O)NS(=O)(=O)c4ccc(NCC5CCOCC5)c([N+](=O)[O-])c4)c(Oc4cnc5[nH]ccc5c4)c3)CC2)=C(c2ccc(Cl)cc2)C1 [Venetoclax] (first compound max 10 µM, 7x7, partner max 1 µM)
[1]
  Bliss excess: -0.0679
[2]
  combination Emax: 0.626
[3]
  combination Emax: 0.585
[4]
  combination Emax: 0.125

## Cc1nc(Nc2ncc(C(=O)Nc3c(C)cccc3Cl)s2)cc(N2CCN(CCO)CC2)n1 [Dasatinib] + CC(=O)Nc1cccc(-n2c(=O)n(C3CC3)c(=O)c3c(Nc4ccc(I)cc4F)n(C)c(=O)c(C)c32)c1 [Trametinib] (first compound max 2 µM, 7x7, partner max 1 µM)
[1]
  Bliss excess: -0.0745
[2]
  combination Emax: 0.892
[3]
  combination Emax: 0.942
[4]
  combination Emax: 0.603

## NC1(C(=O)N[C@@H](CCO)c2ccc(Cl)cc2)CCN(c2ncnc3[nH]ccc23)CC1 [Capivasertib] + CCN(CCO)CCCOc1ccc2c(Nc3cc(CC(=O)Nc4cccc(F)c4)[nH]n3)ncnc2c1 [AZD2811] (first compound max 10 µM, 7x7, partner max 1 µM)
[1]
  Bliss excess: -0.095
[2]
  combination Emax: 1
[3]
  combination Emax: 0.585
[4]
  combination Emax: 0.329

## NC1(C(=O)N[C@@H](CCO)c2ccc(Cl)cc2)CCN(c2ncnc3[nH]ccc23)CC1 [Capivasertib] + Cn1cnc2c(F)c(Nc3ccc(Br)cc3Cl)c(C(=O)NOCCO)cc21 [Selumetinib] (first compound max 10 µM, 7x7, partner max 10 µM)
[1]
  Bliss excess: -0.0291
[2]
  combination Emax: 1
[3]
  combination Emax: 0.918
[4]
  combination Emax: 0.476

## COc1nnc2ccc(N3CCC(c4ccc(OCCN5CCN(C)C(=O)[C@H]5C)cc4)CC3)nn12 [AZD5153] + Cn1cnc2c(F)c(Nc3ccc(Br)cc3Cl)c(C(=O)NOCCO)cc21 [Selumetinib] (first compound max 1 µM, 7x7, partner max 10 µM)
[1]
  Bliss excess: -0.0046
[2]
  combination Emax: 1
[3]
  combination Emax: 1
[4]
  combination Emax: 0.58

## NC1(C(=O)N[C@@H](CCO)c2ccc(Cl)cc2)CCN(c2ncnc3[nH]ccc23)CC1 [Capivasertib] + COc1nnc2ccc(N3CCC(c4ccc(OCCN5CCN(C)C(=O)[C@H]5C)cc4)CC3)nn12 [AZD5153] (first compound max 10 µM, 7x7, partner max 1 µM)
[1]
  Bliss excess: -0.014
[2]
  combination Emax: 1
[3]
  combination Emax: 1
[4]
  combination Emax: 0.466

## COc1nnc2ccc(N3CCC(c4ccc(OCCN5CCN(C)C(=O)[C@H]5C)cc4)CC3)nn12 [AZD5153] + Cc1c2c(nn1C)CSCc1cc(n(C)n1)CSc1cc(c3ccccc3c1)OCCCc1c(C(=O)O)n(C)c3c-2c(Cl)ccc13 [AZD5991] (first compound max 1 µM, 7x7, partner max 1 µM)
[1]
  Bliss excess: -0.0565
[2]
  combination Emax: 1
[3]
  combination Emax: 1
[4]
  combination Emax: 0.942

## COc1nnc2ccc(N3CCC(c4ccc(OCCN5CCN(C)C(=O)[C@H]5C)cc4)CC3)nn12 [AZD5153] + CC1(C)CCC(CN2CCN(c3ccc(C(=O)NS(=O)(=O)c4ccc(NCC5CCOCC5)c([N+](=O)[O-])c4)c(Oc4cnc5[nH]ccc5c4)c3)CC2)=C(c2ccc(Cl)cc2)C1 [Venetoclax] (first compound max 1 µM, 7x7, partner max 1 µM)
[1]
  Bliss excess: -0.052
[2]
  combination Emax: 1
[3]
  combination Emax: 1
[4]
  combination Emax: 0.547

## NC1(C(=O)N[C@@H](CCO)c2ccc(Cl)cc2)CCN(c2ncnc3[nH]ccc23)CC1 [Capivasertib] + CC(C)n1c(=O)n(C)c2cnc3cc(F)c(-c4ccc(OCCCN5CCCCC5)nc4)cc3c21 [AZD1390] (first compound max 10 µM, 7x7, partner max 0.3 µM)
[1]
  Bliss excess: -0.11
[2]
  combination Emax: 0.78
[3]
  combination Emax: 0.37
[4]
  combination Emax: 0.415

## Cc1c2c(nn1C)CSCc1cc(n(C)n1)CSc1cc(c3ccccc3c1)OCCCc1c(C(=O)O)n(C)c3c-2c(Cl)ccc13 [AZD5991] + C=CCn1c(=O)c2cnc(Nc3ccc(N4CCN(C)CC4)cc3)nc2n1-c1cccc(C(C)(C)O)n1 [AZD1775] (first compound max 1 µM, partner max 1 µM)
[2]
  combination Emax: 1
[4]
  combination Emax: 0.921

## CCN(CCO)CCCOc1ccc2c(Nc3cc(CC(=O)Nc4cccc(F)c4)[nH]n3)ncnc2c1 [AZD2811] + C=CCn1c(=O)c2cnc(Nc3ccc(N4CCN(C)CC4)cc3)nc2n1-c1cccc(C(C)(C)O)n1 [AZD1775] (first compound max 1 µM, partner max 1 µM)
[2]
  combination Emax: 0.985
[4]
  combination Emax: 0.63

## CN(CCO)CC[C@H](CSc1ccccc1)Nc1ccc(S(=O)(=O)NC(=O)c2ccc(N3CCC([C@@H](O)c4ccccc4-c4ccc(Cl)cc4)CC3)cc2)cc1S(=O)(=O)C(F)(F)F [AZD4320] + C[C@@H](Nc1cc(F)cc(F)c1)c1cc(C(=O)N(C)C)cc2c(=O)cc(N3CCOCC3)oc12 [AZD8186] (first compound max 1 µM, 7x7, partner max 3 µM)
[2]
  combination Emax: 0.958
[4]
  combination Emax: 0.357

## Cc1cc2ncnn2cc1Nc1ncc2c(n1)n(C1CCOCC1)c(=O)n2C [AZD7648] + O=C(c1cc(Cc2n[nH]c(=O)c3ccccc23)ccc1F)N1CCN(C(=O)C2CC2)CC1 [Olaparib] (first compound max 10 µM, 7x7, partner max 10 µM)
[2]
  combination Emax: 0.22
[4]
  combination Emax: 0.212

## COc1cccc(OCCCN)c1-c1cc(Nc2cnc(C#N)cn2)n[nH]1 [Prexasertib] + C=CCn1c(=O)c2cnc(Nc3ccc(N4CCN(C)CC4)cc3)nc2n1-c1cccc(C(C)(C)O)n1 [AZD1775] (first compound max 1 µM, partner max 1 µM)
[2]
  combination Emax: 1
[4]
  combination Emax: 1

## Cc1cc2ncnn2cc1Nc1ncc2c(n1)n(C1CCOCC1)c(=O)n2C [AZD7648] + CN(C)CCCOc1ccc(-c2ccc3ncc4c(c3c2)n(C2CCOCC2)c(=O)n4C)cn1 [AZD0156] (first compound max 10 µM, 7x7, partner max 1 µM)
[2]
  combination Emax: 0.331
[4]
  combination Emax: 0.143

## CN(C)CCCOc1ccc(-c2ccc3ncc4c(c3c2)n(C2CCOCC2)c(=O)n4C)cn1 [AZD0156] + C=CCn1c(=O)c2cnc(Nc3ccc(N4CCN(C)CC4)cc3)nc2n1-c1cccc(C(C)(C)O)n1 [AZD1775] (first compound max 1 µM, partner max 1 µM)
[2]
  combination Emax: 0.891
[4]
  combination Emax: 0.676

## CC1(C)CCC(CN2CCN(c3ccc(C(=O)NS(=O)(=O)c4ccc(NCC5CCOCC5)c([N+](=O)[O-])c4)c(Oc4cnc5[nH]ccc5c4)c3)CC2)=C(c2ccc(Cl)cc2)C1 [Venetoclax] + C1CN(CCC1(C(=O)N[C@@H](CCO)C2=CC=C(C=C2)Cl)N)C3=NC=NC4=C3C=CN4 [Capivasertib] (first compound max 1 µM, 7x7, partner max 3 µM)
[2]
  combination Emax: 0.541
[4]
  combination Emax: 0.711
